According to publication PMC10997755, “Discovery of a small-molecule inhibitor that traps Polθ on DNA and synergizes with PARP inhibitors” (Nature Communications, 2024):
“And” between values parts separate entries of the source, which are not always exact repeats. Equal values may be shown once. “Also recorded” adds a separate entry of the source.

How the values were obtained:
Polθ-pol = biological target: T1, Polθ-pol (Homo sapiens, UniProt O75417); test: Cy5 fluorescence Polθ-pol DNA synthesis (strand displacement) IC50 assay; assay type: biochemical; conditions: for IC50: Polθ-pol DNA synthesis, Cy5 fluorescence
T1 construct: purified recombinant human Polθ-pol (comprising amino acid residues 1792–2590); made in house
T1 sequence (O75417 1792-2590): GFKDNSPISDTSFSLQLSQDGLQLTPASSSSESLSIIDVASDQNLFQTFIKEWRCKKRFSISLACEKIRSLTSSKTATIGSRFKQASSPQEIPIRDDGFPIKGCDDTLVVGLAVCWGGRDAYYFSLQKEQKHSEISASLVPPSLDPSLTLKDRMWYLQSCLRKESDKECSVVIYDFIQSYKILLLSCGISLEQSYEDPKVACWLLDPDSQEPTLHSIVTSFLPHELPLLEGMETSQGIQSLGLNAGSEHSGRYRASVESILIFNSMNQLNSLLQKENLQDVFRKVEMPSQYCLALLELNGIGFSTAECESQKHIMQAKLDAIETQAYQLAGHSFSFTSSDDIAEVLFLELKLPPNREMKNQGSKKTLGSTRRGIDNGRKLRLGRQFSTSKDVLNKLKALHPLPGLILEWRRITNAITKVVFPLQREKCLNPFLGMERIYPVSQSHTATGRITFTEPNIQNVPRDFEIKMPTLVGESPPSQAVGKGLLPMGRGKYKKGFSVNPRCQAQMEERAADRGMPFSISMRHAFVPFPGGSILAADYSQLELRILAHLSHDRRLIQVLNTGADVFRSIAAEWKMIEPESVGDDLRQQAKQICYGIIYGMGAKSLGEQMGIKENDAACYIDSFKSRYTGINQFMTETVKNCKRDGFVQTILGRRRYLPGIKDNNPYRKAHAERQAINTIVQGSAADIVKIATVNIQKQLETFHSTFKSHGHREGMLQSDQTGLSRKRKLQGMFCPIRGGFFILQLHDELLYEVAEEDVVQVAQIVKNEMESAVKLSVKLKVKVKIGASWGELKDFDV
In short: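 Recombinant human Polθ-pol (aa 1792–2590, 5 nM) extends 60 nM Cy5/quencher primer-template with 50 uM dNTPs in 25 mM Tris pH 7.8, 10 mM MgCl2, 2.5% DMSO at 37 °C. After 18 min, stopped with 20 mM EDTA; Cy5 fluorescence read, 7-point series in triplicate, inhibition from the mean.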

DLD1 BRCA2 -/- cells = test: Clonogenic assay; assay type: cell-based; conditions: for Average number of colonies counted / Normalized colonies (0 micro M = 100): per experiment; for selective killing / synthetic lethality in BRCA2-null DLD1 cells: colony survival, versus BRCA2-WT
In short: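 Cells seeded at low density (300–1000 per well, by plate size and genotype), medium changed every 2 days, colonies grown 10–12 days. Fixed in water:ethanol:acetic acid, stained with 0.5% crystal violet, then counted; IC50 from ≥3 independent experiments, mean ± SEM.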

DLD1 Parental cells = test: Clonogenic assay; assay type: cell-based; conditions: for Normalized colonies (0 micro M = 100): per experiment
Procedure: Cells were plated on six or twelve or twenty-four well plates. In six well plate, 1000 cells/ well of BRCA2 -/-, BRCA1 -/-, PALB2 mut and 500 cells/ well of wildtype pair was plated; In twelve well plate, 600 cells/ well of BRCA2 -/-, BRCA1 -/-, PALB2 mut and 400 cells/ well of wildtype pair was plated; In twenty-four well plate, 500 cells/ well of BRCA2 -/-, BRCA1 -/-, PALB2 mut and 300 cells/ well of wildtype pair was plated. For MEFs, 300 cells per well in six-well plate were seeded. The medium was replaced every 2 days until the colonies were ready for staining in 10–12 days. For staining: Medium was removed from plates, and cells were rinsed with PBS. Fixation was carried out with—Water: Ethanol: Acetic acid (5:4:1) for 30 min followed by staining of colonies with 0.5% crystal violet in Water: Ethanol (3:2) for 2 h at room temperature. The plates were rinsed with water and left for drying overnight at room temperature. Colonies were then counted and IC50 was calculated using results from 3 or more independent experiments. Response curves are shown as mean colony formation +/- S.E.M.

LogP = assay type: physicochemical; conditions: method not stated
[1] = 10 μM compound, 5 nM PolQ, 60 nM DNA, 18 min

With `CN(C(=O)Oc1c(N2CCN(CCO)C2=O)cc(C(F)(F)F)cc1C(F)(F)F)c1ccc(F)cc1` [RTx-161] the IC50 (Polθ-pol) was 4.1 nM and 4 to 6 nM, the IC50 (DLD1 BRCA2 -/- cells; Homo sapiens, DLD-1, read-out: IC50 clonogenic survival) was ~1000 nM and the “Normalized colonies, pooled Average of 3 experiments” value (“Normalized colonies, pooled Average” for short) (DLD1 BRCA2 -/- cells; RTX-161 0.185 micro M) was 84.318%. The “Average number of colonies counted” value (DLD1 BRCA2 -/- cells; RTX-161 0.185 micro M) was 67.3333 and 120 and 63.3333, the “Normalized colonies (0 micro M = 100)” value (DLD1 BRCA2 -/- cells; RTX-161 0.185 micro M) was 74.5387% and 90.4523% and 87.963% and the “Normalized colonies, pooled Average” value (DLD1 BRCA2 -/- cells; RTX-161 0.555 micro M) was 72.4221%. The “Average number of colonies counted” value (DLD1 BRCA2 -/- cells; RTX-161 0.555 micro M) was 58.6667 and 97.6667 and 56.6667, the “Normalized colonies (0 micro M = 100)” value (DLD1 BRCA2 -/- cells; RTX-161 0.555 micro M) was 64.9446% and 73.6181% and 78.7037% and the “Normalized colonies, pooled Average” value (DLD1 BRCA2 -/- cells; RTX-161 1.67 micro M) was 40.9897%. The “Average number of colonies counted” value (DLD1 BRCA2 -/- cells; RTX-161 1.67 micro M) was 28.3333 and 49.6667 and 39, the “Normalized colonies (0 micro M = 100)” value (DLD1 BRCA2 -/- cells; RTX-161 1.67 micro M) was 31.3653% and 37.4372% and 54.1667% and the “Normalized colonies, pooled Average” value (DLD1 BRCA2 -/- cells; RTX-161 5 micro M) was 19.5991%. For the same compound, the “Average number of colonies counted” value (DLD1 BRCA2 -/- cells; RTX-161 5 micro M) was 11.6667 and 20.3333 and 22, the “Normalized colonies, pooled Average” value (DLD1 BRCA2 -/- cells; RTX-161 15 micro M) was 11.8019% and the “selective killing / synthetic lethality in BRCA2-null DLD1 cells” value (DLD1 BRCA2 -/- cells) was “selective killing”. For the same compound, the “effect in BRCA2-WT cells” value (DLD1 Parental cells; DLD1, colony survival) was “little to no effect”, the “Normalized colonies, pooled Average” value (DLD1 Parental cells; RTX-161 0.185 micro M) was 97.5686% and the “Normalized colonies (0 micro M = 100)” value (DLD1 Parental cells; RTX-161 0.185 micro M) was 97.878% and 98.6301% and 96.1977%. The “Normalized colonies, pooled Average” value (DLD1 Parental cells; RTX-161 0.555 micro M) was 95.8582%, the “Normalized colonies (0 micro M = 100)” value (DLD1 Parental cells; RTX-161 0.555 micro M) was 95.8175% and 96.5517% and 95.2055% and the “Normalized colonies, pooled Average” value (DLD1 Parental cells; RTX-161 1.67 micro M) was 94.2875%. The “Normalized colonies (0 micro M = 100)” value (DLD1 Parental cells; RTX-161 1.67 micro M) was 93.5361% and 95.4907% and 93.8356%, the “Normalized colonies, pooled Average” value (DLD1 Parental cells; RTX-161 5 micro M) was 93.9179% and the “Normalized colonies (0 micro M = 100)” value (DLD1 Parental cells; RTX-161 5 micro M) was 93.1559% and 96.817% and 91.7808%. The “Normalized colonies, pooled Average” value (DLD1 Parental cells; RTX-161 15 micro M) was 93.9599%, the “Normalized colonies (0 micro M = 100)” value (DLD1 Parental cells; RTX-161 15 micro M) was 90.8745% and 94.4297% and 96.5753% and the logP (LogP) was 3.6.
With `CN(C(=O)Oc1ccc(C(F)(F)F)cc1C(F)(F)F)c1ccc(F)cc1` [MC160385] the “improved potency relative to hit MC28003” value (Polθ-pol) was ~ 18 fold, the “raw signal, Positive Control, Average” value (Polθ-pol; [1]) was 21.00 and the “raw signal, Positive Control, Trial 1-3” value (Polθ-pol; [1]) was 20.96 and 21.46 and 20.58. The “Cy5 fluorescence, Average of Trial 1-3” value (Polθ-pol; MC160385 0.0014 μM, 5 nM PolQ) was 363.79, the activity at 0.0041 µM (Polθ-pol; MC160385 0.0041 μM) was 77.8% and the inhibition at 0.0041 µM (Polθ-pol; MC160385 0.0041 μM) was 22.2%. For the same compound, the “Cy5 fluorescence, Average of Trial 1-3” value (Polθ-pol; MC160385 0.0041 μM, 5 nM PolQ) was 309.29, the activity at 0.0123 µM (Polθ-pol; MC160385 0.0123 μM) was 38.7% and the inhibition at 0.0123 µM (Polθ-pol; MC160385 0.0123 μM) was 61.3%. The “Cy5 fluorescence, Average of Trial 1-3” value (Polθ-pol; MC160385 0.0123 μM, 5 nM PolQ) was 203.69, the activity at 0.037 µM (Polθ-pol; MC160385 0.0370 μM) was 3.23% and the inhibition at 0.037 µM (Polθ-pol; MC160385 0.0370 μM) was 96.8%. For the same compound, the “Cy5 fluorescence, Average of Trial 1-3” value (Polθ-pol; MC160385 0.0370 μM, 5 nM PolQ) was 109.39, the activity at 0.1111 µM (Polθ-pol; MC160385 0.1111 μM) was -2.07% and the inhibition at 0.1111 µM (Polθ-pol; MC160385 0.1111 μM) was 102%. The “Cy5 fluorescence, Average of Trial 1-3” value (Polθ-pol; MC160385 0.1111 μM, 5 nM PolQ) was 94.78, the activity at 0.3333 µM (Polθ-pol; MC160385 0.3333 μM) was -2.9% and the inhibition at 0.3333 µM (Polθ-pol; MC160385 0.3333 μM) was 103%. For the same compound, the “Cy5 fluorescence, Average of Trial 1-3” value (Polθ-pol; MC160385 0.3333 μM, 5 nM PolQ) was 92.26, the activity at 1 µM (Polθ-pol; MC160385 1.0000 μM) was -1.58% and the inhibition at 1 µM (Polθ-pol; MC160385 1.0000 μM) was 102%. For the same compound, the “Cy5 fluorescence, Average of Trial 1-3” value (Polθ-pol; MC160385 1.0000 μM, 5 nM PolQ) was 95.83, the “Positive Control fluorescence, Average” value (Polθ-pol; MC160385 2 μM, sheet Fig. 1 b) was 100.15 and the “Positive Control fluorescence, Average” value (Polθ-pol; MC160385 10 μM, 5 nM PolQ, 18 min, sheet Fig. 1 g) was 33.58. For the same compound, the IC50 (Polθ-pol) was 9 nM, the “selective killing / synthetic lethality in BRCA2-null DLD1 cells” value (DLD1 BRCA2 -/- cells) was “failed to show selective killing; also recorded: failure” and the logP (LogP) was ~5.3.
